The values that follow come from ChEMBL document CHEMBL1121561, “Synthesis and antineoplastic activity of a novel series of phosphoramide mustard analogues of pyrimidine deoxyribonucleosides” (1980).

pIC50: −log10 of the molar value. Active and inactive are the calls of the source. No cut-off for these calls is given here.

The subject of test [1] is L1210. Briefly: Compound was tested in vitro for its inhibition against replication of L1210 neoplastic cells; Inactive. It is filed as functional, cell-based. The settings on record: Mus musculus.
Test [2] concerns L1210. Briefly: Compound was tested in vitro for its inhibition against replication of L1210 neoplastic cells. It is filed as functional. The note with it: Mus musculus, read-out: ID50 (the source's name).

Consider `O=P1(N(CCCl)CCCl)NCCCO1` (stereo not given), for which the ID50 entry in test [1] is “inactive”.

For the compound `Cc1cn(C2CC3OP(=O)(N(CCCl)CCCl)NCC3O2)c(=O)[nH]c1=O` (stereo not given), in test [2], the pIC50 is 4.92.

As for `O=c1[nH]c(=O)n(C2CC3OP(=O)(N(CCCl)CCCl)NCC3O2)cc1I` (stereo not given), the pIC50 in test [2] was 4.85.

On to `Cc1cn(C2CC3OP(=O)(N(CCCl)CCCl)N(C)CC3O2)c(=O)[nH]c1=O` (stereo not given), for which, in test [2], the pIC50 was 4.82.

As to `Cc1cn(C2CC3NP(=O)(N(CCCl)CCCl)NCC3O2)c(=O)[nH]c1=O` (stereo not given), the ID50 entry in test [1] is “inactive”.
